Results taken from US20170184604A1, “DD1ALPHA RECEPTOR AND USES THEREOF IN IMMUNE DISORDERS” (THE GENERAL HOSPITAL CORPORATION, priority 2014, published 2017).

How the values were obtained:
PD-1 = target: T1, PD-1 (Homo sapiens, UniProt Q15116); test: Ig fusion protein-pull down assay; type: binding
T1 construct: full length human PD-1 and Tim3 cDNA (Sino biological) were cloned into pcDNA3.1(−) tagged with HA at C-terminus; host or cells: HEK293T
Description: FIGS. 6A-6E show physical association of DD1α with PD1 but not with PD-L1. (FIG. 6A) Interaction of DD1α with PD1 or DD1α. […] The bound Ig fusion proteins were detected with anti-Ig-APC. Empty vector (pcDNA3.1)-transfected cells stained with Ig proteins are shown as a negative control (gray filled) and other staining is shown as black open. (FIG. 6B) DD1α binds to both DD1α and PD1 on CD4+ T cells. Purified CD4+ T cells from Wt and DD1α−/− mice were assayed for binding to Ig fused DD1α or PD1 proteins. Cells were incubated with DD1α-Ig (open), PD1-Ig (open), or control Ig proteins (gray filled) and the bound Ig fusion proteins were detected by anti-Ig-APC. […] The bound Ig fusion proteins were detected by anti-Ig-APC. Binding amounts were determined by percentage of APC positive cells compared to control Ig protein-bound cells. (FIG. 6C) Ig-pulldown experiments show DD1α interaction with both DD1α and PD1. […] The bead bound proteins were eluted and determined by western blot analysis using anti-HA antibody (asterisks). […] The bead bound proteins were eluted and detected by western blot analysis with anti-DD1α or anti-PD1 antibody (asterisk). […] The levels of indicated proteins were analyzed by western blot analysis. Total RNAs from control siRNA or p53 siRNA transfected MCF7 cells were assessed for mRNA levels of PD1 or PD-L1 by real-time quantitative PCR. […]

[1] = system: CD4+ or CD8+ T cells from wt- or DD1α−/− mice; test: Mouse T cell activation assay (CFSE proliferation); type: cell-based
Description: Enriched CD4+ and CD8+ T cells from Wt and DD1α−/− mice were stimulated, with 2.5 μg/ml anti-CD3 alone or together with DD1α-Ig or control Ig. The proliferations of CD4+ T cells (top graphs) or CD8+ T cells (bottom graphs) were determined by the percentage of CFSE-diluted CD8+ cells on day 3. The levels of cytokines (IFN-γ and TNF-α) in culture supernatant on day 2 were analyzed by ELISA. The results represent mean±SD from three experiments.
The inventors have discovered that DD1αregulates T cell activation through DD1α on T cells. […] The proliferations of CD4+ T cells were determined by percentage of CFSE-diluted CD4+ cells on day 3 and IFN-γ and levels in culture supernatants on day 2 were analyzed by ELISA. […] The proliferations of CD8+ T cells were determined by percentage of CD8+ T cells containing diluted CFSE signal on day 3. The cytokine levels in culture supernatant were analyzed by ELISA on day 2.
The amount of Ig protein was kept constant at 10 μg/ml by the addition of control Ig protein. Human CD4+ or CD8+ T cells were purified from freshly isolated PBMCs using CD4+ T Cell Isolation Kit II, human or CD8+ T Cell Isolation Kit, human (Miltenyi Biotec). Mouse CD4+ and CD8+ T cells were purified from splenocytes freshly isolated from mice using CD4+ T Cell Isolation Kit II, mouse or CD8a+ T Cell Isolation Kit II, mouse (Miltenyi Biotec). Purity was confirmed to be over 90% by flow cytometry. The T cells were labeled with 1 μM CFSE, quenched by cold FBS and incubated in the anti-CD3 & Ig proteins-coated plates. On day 2 after stimulation, supernatant was collected and cytokines were assayed by ELISA. On day 3, cells were stained with anti-CD4-APC (OKT4, eBioscience for human CD4+ T cells; RM4-5, eBioscience for mouse CD4+ T cells) or anti-CD8-APC (SK1, eBioscience for human CD8+ T cells; 53-6.7, eBioscience for mouse CD8+ T cells) and then analyzed for CFSE dilution by flow cytometry.

T1 sequence (Q15116 25-288): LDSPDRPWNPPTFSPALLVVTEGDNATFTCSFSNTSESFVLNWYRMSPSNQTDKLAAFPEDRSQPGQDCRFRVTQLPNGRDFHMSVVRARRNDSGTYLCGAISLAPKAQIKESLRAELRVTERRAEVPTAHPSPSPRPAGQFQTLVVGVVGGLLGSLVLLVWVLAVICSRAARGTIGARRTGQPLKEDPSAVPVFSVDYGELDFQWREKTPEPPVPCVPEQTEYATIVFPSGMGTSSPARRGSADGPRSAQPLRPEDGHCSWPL

pull down of PD-1 (PD-1; lysates from transfected 293T cells): pulled down | pull down of endogenous PD-1 (PD-1; lysates of Nutlin-3-treated MCF7 cells): found
Substance: DD1α-Ig: the extracellular region of DD1α fused with the immunoglobulin G Fc segment
inhibition of anti-CD3-induced CD4+ or CD8+ T cell proliferation ([1]; DD1α−/− CD4+ or CD8+ T cells): ~30% | inhibition of anti-CD3-induced CD4+ or CD8+ T cell proliferation ([1]; T cells from wt mice): ~50% | mouse CD4+ and CD8+ T cell activation ([1]; dose-dependent): inhibitory effect
